Measured values published in patent US9018171B2, “Uses of an immunomodulatory protein (GMI) from Ganoderma microsporum” (Mycomagic Biotechnology Co., Ltd., priority 2010, dated 2015).

Assays:
EGFR = experiment: Western blotting, EGF-induced phosphorylation; type: cell-based, human; conditions: A549 cells, pretreated 8 h, EGF 10 minutes
Description: A549 cells (5×10^5 cells/60 mm) were pretreated with various concentrations of GMI (4, 16 μg/ml) or AG1478 (EGFR inhibitors) for 8 hours prior to incubation for 10 minutes with EGF (as indicated). Cell lysates were subject to immunoblotting with phospho-specific EGFR (Y1068) (A and B), anti-phospho-AKT (A), anti-AKT (A), anti-phospho-GSK3β (A) or anti-phospho-STAT3 antibodies (B). Protein loading was determined by Western blotting against β-actin (A and B).
Total cell lysates were prepared in RIPA buffer (100 μl in 60 mm in dish). Fifty μg of lysate were loaded onto an 8% polyacrylamide gel and analyzed by SDS gel electrophoresis. After transfer to PVDF (Amersham), blots were blocked with 5% skim milk in TBS (10 mM Tris-CL pH7.5, 150 mM NaCl) containing 0.2% Tween-20. Blots were probed with antibodies (at their recommended dilutions) in 5% skim milk in TBS overnight at 4° C. Following detection with the appropriate horseradish-peroxidase conjugated secondary antibody (Cell Signaling), blots were developed by enhanced chemiluminescence according to the manufacturer's directions (Perkin Elmer Life Sciences). All experiments were performed in duplicate.
To assess whether GMI mediates and/or inhibits phosphorylation of Akt and Stat3, the invention investigated the effect of GMI on the phosphorylation status of Akt and Stat3 in A549 cells treated with various concentrations of GMI for 8 h.

A549 = experiment: MTT assay, drug sensitivity; type: cell-based, human; conditions: for IC50: Homo sapiens, A549, 48 h, MTT
Description: (§1) A549 cell line and resistant A549 cell sublines (A549/D16, A549/D32 and A549/V16) (5000 cells/well of 96-well plate) were treated with increased doses concentrations (μM) of GMI from Ganoderma microsporum, docetaxel, vincristine and doxorubicin for 48 h, respectively. Cell viability was measured by MTT assay and the results are presented as the calculated cell growth inhibitory ratio. Experiments were repeated three times.

A549/D32 = experiment: MTT assay, drug sensitivity; type: cell-based, human; conditions: for value in parentheses after IC50 (ratio to parental A549): A549/D32; for IC50: Homo sapiens, A549/D32, 48 h, MTT
Description: as §1

A549/D16 = experiment: MTT assay, drug sensitivity; type: cell-based, human; conditions: for value in parentheses after IC50 (ratio to parental A549): A549/D16; for IC50: Homo sapiens, A549/D16, 48 h, MTT
Description: as §1

A549/V16 = experiment: MTT assay, drug sensitivity; type: cell-based, human; conditions: for value in parentheses after IC50 (ratio to parental A549): A549/V16; for IC50: Homo sapiens, A549/V16, 48 h, MTT
Description: as §1

CaLu-1 cells = experiment: MTT assay, cisplatin and GMI co-treatment; type: cell-based; conditions: CaLu-1, 48 h, read-out: cisplatin alone concentration needed to achieve about 50% cell viability
Description: CaLu-1 cells were co-treated with various concentrations of cisplatin (0, 2.5, 5, 10, 20 μM) and GMI from Ganoderma microsporum (0, 4, 8 and 16 μg/mL) for 48 h followed by MTT assay to estimate cell viability.
MTT assay was used to determine the effect of GMI and cisplatin on the proliferation of Calu-1 cells. In metabolically active cells, MTT (Thiazolyl Blue Tetrazolium Bromide) (Sigma) was reduced by dehydrogenase enzyme into an formazan product. Absorbance was measured directly at 570 nm from 96-well assay plates after adding 100 μl DMSO. The quantity of formazan was considered to be directly proportional to the number of viable cells in the culture.
Briefly, the cells (5×10^3) were incubated on 96-well plates containing 200 μl of growth medium. After 24 h incubation, the medium was carefully removed and 100 μl of fresh medium containing various concentrations of GMI and cisplatin were added to the wells. The cells were treated with GMI and cisplatin continuously for 48 h with 0, 4, 8, 16 μg/ml for GMI and with 0, 2.5, 5 and 10 μM for cisplatin. […] The absorbance was analyzed on a VERSAmax microplate reader at 570 nm. Absorbance values were presented as the mean±SE of 3 replicates for each treatment. […] Absorbance of untreated cells was considered 100%. […]

SMILES	EGF-induced activation (phosphorylation) of EGFR (EGFR)	value in parentheses after IC50 (ratio to parental A549) (A549)	IC50 (A549)	value in parentheses after IC50 (ratio to parental A549) (A549/D32)	IC50 (A549/D32)	value in parentheses after IC50 (ratio to parental A549) (A549/D16)	IC50 (A549/D16)	value in parentheses after IC50 (ratio to parental A549) (A549/V16)	IC50 (A549/V16)	IC50 (CaLu-1 cells)
COc1cc2ncnc(Nc3cccc(Cl)c3)c2cc1OC [AG1478, reference compound]	able to inhibit EGFR phosphorylation									
CC(=O)O[C@@]12CO[C@@H]1C[C@H](O)[C@@]1(C)C(=O)[C@H](O)C3=C(C)[C@@H](OC(=O)[C@H](O)[C@@H](NC(=O)OC(C)(C)C)c4ccccc4)C[C@@](O)([C@@H](OC(=O)c4ccccc4)[C@H]21)C3(C)C [Docetaxel]		1.0	6.4 ± 0.1 nM	318.0	2040 ± 955 nM	114.1	730 ± 56.6 nM	121.9	780 ± 51.3 nM	
COc1cccc2c1C(=O)c1c(O)c3c(c(O)c1C2=O)C[C@@](O)(C(=O)CO)C[C@@H]3O[C@H]1C[C@H](N)[C@H](O)[C@H](C)O1 [Doxorubicin]		1.0	223 ± 23.2 nM	34.6	7690 ± 148 nM	15.4	3420 ± 152 nM	6.9	1530 ± 80.8 nM	
CC[C@]1(O)C[C@H]2CN(CCc3c([nH]c4ccccc34)[C@@](C(=O)OC)(c3cc4c(cc3OC)N(C=O)[C@H]3[C@@](O)(C(=O)OC)[C@H](OC(C)=O)[C@]5(CC)C=CCN6CC[C@]43[C@@H]65)C2)C1 [Vincristine]		1.0	14.9 ± 0.1 nM	49.2	730 ± 28.3 nM	51.9	770 ± 56.6 nM	51.2	760 ± 92.4 nM	
N.N.[Cl][Pt][Cl] [cisplatin]										~10000 nM
